ChEMBL document CHEMBL3885881, “DrugMatrix”

Species on record: Rattus norvegicus
Type: toxicity, organism-based, Sprague-Dawley
Conditions: in vivo, ip, 24 h, route intraperitoneal, time 1 day, vehicle .1 % RSA/SALINE
[1] = 0 mg/kg, vehicle control, tissue Blood, dose level Control
[2] = 0 mg/kg, vehicle control, tissue Plasma, dose level Control
[3] = 0.01 mg/kg, tissue Blood, dose level High
[4] = 0.01 mg/kg, tissue Plasma, dose level High

Description: DrugMatrix - Regimen: Single

Sequence: INTERLEUKIN 1 BETA, RAT
- ABSOLUTE EOSINOPHIL [1]: 109.33 CELLS/uL
- ABSOLUTE LYMPHOCYTE [1]: 13180.67 CELLS/uL
- ABSOLUTE MONOCYTE [1]: 354 CELLS/uL
- ABSOLUTE SEGMENTED NEUTROPHIL [1]: 1756 CELLS/uL
- BASOPHIL [1]: 0%
- EOSINOPHIL [1]: 0.67%
- ERYTHROCYTE COUNT [1]: 5.38 x10E6/uL
- HEMOGLOBIN [1]: 12.57 G/DL
- LEUKOCYTE COUNT [1]: 15.4 x10E3/uL
- LYMPHOCYTE [1]: 85%
- MEAN CORPUSCULAR HEMOGLOBIN [1]: 23.37 pg
- MEAN CORPUSCULAR HEMOGLOBIN CONCENTRATION [1]: 38.3 G/DL
- NEUTROPHIL [1]: 12%
- NUCLEATED RED BLOOD CELLS [1]: 0 /100WBC
- PLATELET COUNT [1]: 832.33 x10E3/uL
- ALANINE AMINOTRANSFERASE [2]: 37.33 u/L
- ALBUMIN [2]: 4 G/DL
- ALKALINE PHOSPHATASE [2]: 344.67 u/L
- ASPARTATE AMINOTRANSFERASE [2]: 69.33 u/L
- BLOOD UREA NITROGEN [2]: 13.67 mg/dL
- CARBON DIOXIDE [2]: 28.33 mmol/L
- CHLORIDE [2]: 99.67 MEQ/L
- CHOLESTEROL [2]: 73.67 mg/dL
- CREATINE PHOSPHOKINASE [2]: 270 u/L
- CREATININE [2]: 0.19 mg/dL
- GLUCOSE [2]: 176.33 mg/dL
- LACTATE DEHYDROGENASE [2]: 160 u/L
- PHOSPHORUS [2]: 13.47 mg/dL
- POTASSIUM [2]: 6.77 MEQ/L
- TOTAL BILIRUBIN [2]: 0.13 mg/dL
- TOTAL PROTEIN [2]: 6.07 G/DL
- URIC ACID [2]: 1.87 mg/dL
- ABSOLUTE EOSINOPHIL [3]: 0 CELLS/uL
- ABSOLUTE LYMPHOCYTE [3]: 13348 CELLS/uL
- ABSOLUTE MONOCYTE [3]: 227.67 CELLS/uL
- ABSOLUTE SEGMENTED NEUTROPHIL [3]: 3524.33 CELLS/uL
- BASOPHIL [3]: 0%
- EOSINOPHIL [3]: 0%
- ERYTHROCYTE COUNT [3]: 5.11 x10E6/uL
- HEMATOCRIT [3]: 31.33%
- HEMOGLOBIN [3]: 12.13 G/DL
- LEUKOCYTE COUNT [3]: 17.1 x10E3/uL
- LYMPHOCYTE [3]: 78%
- MEAN CORPUSCULAR HEMOGLOBIN CONCENTRATION [3]: 38.73 G/DL
- MEAN CORPUSCULAR VOLUME [3]: 61.37 fL
- NEUTROPHIL [3]: 20.67%
- NUCLEATED RED BLOOD CELLS [3]: 0.33 /100WBC
- PLATELET COUNT [3]: 933.33 x10E3/uL
- ALANINE AMINOTRANSFERASE [4]: 30.33 u/L
- ALKALINE PHOSPHATASE [4]: 386.33 u/L
- ASPARTATE AMINOTRANSFERASE [4]: 62.67 u/L
- CARBON DIOXIDE [4]: 25.33 mmol/L
- CHOLESTEROL [4]: 66.67 mg/dL
- CREATINE PHOSPHOKINASE [4]: 237 u/L
- CREATININE [4]: 0.18 mg/dL
- GLUCOSE [4]: 176.33 mg/dL
- LACTATE DEHYDROGENASE [4]: 101 u/L
- PHOSPHORUS [4]: 12.13 mg/dL
- POTASSIUM [4]: 6.6 MEQ/L
- TOTAL BILIRUBIN [4]: 0.13 mg/dL
- TOTAL PROTEIN [4]: 6.07 G/DL
